This passage reports melting point, pest or weed control and inhibition of growth results from patent US10477864B2, “Microbiocidal quinoline (thio)carboxamide derivatives” (priority 2016, dated 2019).

The structures appear in SMILES notation.

The melting point is the temperature, or range, at which the solid turns liquid.

The subject of data set [1] is Fusarium culmorum. The data set is described as follows: whole plant or invertebrate. It counts as in vivo. To be noted: in Triticum aestivum, read-out: control of Fusarium culmorum.
Data set [2] concerns Magnaporthe grisea (Pyricularia oryzae). The data set is described as follows: microbe, parasite or virus in culture. In kind it is cell-based. To be noted: 72 h, read-out: control of Magnaporthe grisea.
The subject of data set [3] is Fusarium culmorum. The data set is described as follows: microbe, parasite or virus in culture. In kind it is cell-based. To be noted: read-out: control of Fusarium culmorum.
Data set [4] deals with Botryotinia fuckeliana (Botrytis cinerea). The data set is described as follows: Botryotinia fuckeliana (Botrytis cinerea) / liquid culture (gray mould). It counts as cell-based. To be noted: 72 h, read-out: control of Botryotinia fuckeliana.
Data set [5] deals with Glomerella lagenarium (Colletotrichum lagenarium). The data set is described as follows: Glomerella lagenarium (Colletotrichum lagenarium) / liquid culture (anthracnose). In kind it is cell-based. To be noted: Colletotrichum orbiculare; read-out: control of Glomerella lagenarium.
In data set [6] the test system is Monographella nivalis (Microdochium nivale). The data set is described as follows: Monographella nivalis (Microdochium nivale) / liquid culture (foot rot cereals). It counts as cell-based. To be noted: 96 h, read-out: control of Monographella nivalis.

`O=C(NC(CCC(F)(F)F)Cc1ccccc1)c1cnc2c(F)cccc2c1` (stereo not shown) [Compound E-16, N-(1-benzyl-4,4,4-trifluoro-butyl)-8-fluoro-quinoline-3-carboxamide] showed a melting point of 157 to 161 °C. Besides, the pest or weed control at 200 ppm with Fusarium culmorum [1] was not below 80%. Further, in data set [2], the inhibition of growth at 200 ppm is not below 80%. The inhibition of growth at 200 ppm in the data set on Fusarium culmorum [3] was not below 80%. Besides, in data set [4], the inhibition of growth at 200 ppm is not below 80%.
With `CC(C)CC(C)(Cc1ccc(C#N)cc1)NC(=O)c1cnc2c(F)cccc2c1` (stereo not shown) [Compound E-32, N-[1-[(4-cyanophenyl)methyl]-1,3-dimethyl-butyl]-8-fluoro-quinoline-3-carboxamide], the melting point is 67 to 69 °C. Besides, the inhibition of growth at 200 ppm in data set [5] was not below 80%. In addition, the inhibition of growth at 200 ppm in data set [2] is not below 80%. Besides, the inhibition of growth at 200 ppm in the data set with Fusarium culmorum [3] was not below 80%. In addition, in data set [4], the inhibition of growth at 200 ppm is not below 80%.
As for `CC(C)CC(C)(Cc1ccccc1C#N)NC(=O)c1cnc2c(F)cccc2c1` (stereo not shown) [Compound E-44, N-[1-[(2-cyanophenyl)methyl]-1,3-dimethyl-butyl]-8-fluoro-quinoline-3-carboxamide], the melting point was 43 to 44 °C. In the data set with Fusarium culmorum [1], the pest or weed control at 200 ppm was not below 80%. The inhibition of growth at 200 ppm in data set [5] is not below 80%. Also, the inhibition of growth at 200 ppm in data set [2] was not below 80%. Moreover, the inhibition of growth at 200 ppm with Fusarium culmorum [3] is not below 80%. For the same compound, the inhibition of growth at 200 ppm in data set [4] is not below 80%.
Turning to `CC(F)(F)CC(C)(Cc1ccccc1)NC(=O)c1cnc2c(F)cccc2c1` (stereo not shown) [Compound E-50, N-(1-benzyl-3,3-difluoro-1-methyl-butyl)-8-fluoro-quinoline-3-carboxamide], the pest or weed control at 200 ppm in the data set on Fusarium culmorum [1] is not below 80%. Further, the inhibition of growth at 200 ppm (in data set [5]; in data set [2]; in the data set on Fusarium culmorum [3]; in data set [4]) was not below 80% each time.
Consider `C=C(C)CC(C)(NC(=O)c1cnc2c(F)cccc2c1)C(F)(F)c1ccccc1` (stereo not shown) [Compound E-51, N-[1-[difluoro(phenyl)methyl]-1,3-dimethyl-but-3-enyl]-8-fluoro-quinoline-3-carboxamide], for which, in the data set on Fusarium culmorum [1], the pest or weed control at 200 ppm is not below 80%. The inhibition of growth at 200 ppm (in data set [5]; in data set [2]; in the data set with Fusarium culmorum [3]; in data set [4]) was not below 80% each time.
For `CC(F)(F)CC(C)(Cc1ccccc1)NC(=O)c1cnc2ccccc2c1` (stereo not shown) [Compound E-52, N-(1-benzyl-3,3-difluoro-1-methyl-butyl)quinoline-3-carboxamide], the melting point is 131 to 133 °C. Besides, the pest or weed control at 200 ppm in the data set with Fusarium culmorum [1] is not below 80%. Besides, in data set [5], the inhibition of growth at 200 ppm is not below 80%. Moreover, the inhibition of growth at 200 ppm in data set [2] is not below 80%. The inhibition of growth at 200 ppm with Fusarium culmorum [3] is not below 80%. The inhibition of growth at 200 ppm in data set [4] was not below 80%.
Consider `CC(Cc1ccccc1)(CC(F)(F)F)NC(=O)c1cnc2c(C#N)cccc2c1` (stereo not shown) [Compound E-62, N-(1-benzyl-3,3,3-trifluoro-1-methyl-propyl)-8-cyano-quinoline-3-carboxamide], for which the melting point was 175 to 179 °C. Also, the pest or weed control at 200 ppm in the data set on Fusarium culmorum [1] is not below 80%. Further, the inhibition of growth at 200 ppm in data set [5] is not below 80%. Moreover, the inhibition of growth at 200 ppm in data set [2] was not below 80%. The inhibition of growth at 200 ppm with Fusarium culmorum [3] is not below 80%. The inhibition of growth at 200 ppm in data set [4] is not below 80%.
The compound `CC(C)CC(C)(Cc1ccccc1)NC(=O)c1cnc2cc(Cl)ccc2c1` (stereo not shown) [Compound E-65, N-(1-benzyl-1,3-dimethyl-butyl)-7-chloro-quinoline-3-carboxamide] returned a melting point of 172 to 174 °C. Also, in data set [2], the inhibition of growth at 200 ppm was not below 80%. Moreover, in the data set on Fusarium culmorum [3], the inhibition of growth at 200 ppm was not below 80%. The inhibition of growth at 200 ppm in data set [4] is not below 80%.
As for `CC(Cc1ccc(F)cc1)(CC(F)(F)F)NC(=O)c1cnc2c(F)cccc2c1` (stereo not shown) [Compound E-66, 8-fluoro-N-[3,3,3-trifluoro-1-[(4-fluorophenyl)methyl]-1-methyl-propyl]quinoline-3-carboxamide], the melting point fell in the range of 146 to 147 °C. The pest or weed control at 200 ppm in the data set on Fusarium culmorum [1] was not below 80%. The inhibition of growth at 200 ppm in data set [5] is not below 80%. Besides, the inhibition of growth at 200 ppm in data set [2] is not below 80%. Besides, in the data set on Fusarium culmorum [3], the inhibition of growth at 200 ppm is not below 80%. Further, the inhibition of growth at 200 ppm in data set [4] is not below 80%.
Compound `CC(Cc1cccc(F)c1)(CC(F)(F)F)NC(=O)c1cnc2c(F)cccc2c1` (stereo not shown) [Compound E-99, 8-fluoro-N-[3,3,3-trifluoro-1-[(3-fluorophenyl)methyl]-1-methyl-propyl]quinoline-3-carboxamide] showed a melting point of 149 to 151 °C. Moreover, in the data set with Fusarium culmorum [1], the pest or weed control at 200 ppm was not below 80%. In addition, the inhibition of growth at 200 ppm in data set [6] was not below 80%. In data set [5], the inhibition of growth at 200 ppm was not below 80%. For the same compound, the inhibition of growth at 200 ppm with Fusarium culmorum [3] is not below 80%. Further, the inhibition of growth at 200 ppm in data set [4] is not below 80%.
Compound `C=C(C)CC(COC)(Cc1ccccc1)NC(=O)c1cnc2c(F)cccc2c1` (stereo not shown) [Compound E-103, N-[1-benzyl-1-(methoxymethyl)-3-methyl-but-3-enyl]-8-fluoro-quinoline-3-carboxamide] gave a melting point of 147 to 149 °C. Besides, the pest or weed control at 200 ppm with Fusarium culmorum [1] was not below 80%. In data set [6], the inhibition of growth at 200 ppm was not below 80%. Further, the inhibition of growth at 200 ppm in data set [5] was not below 80%. Also, the inhibition of growth at 200 ppm with Fusarium culmorum [3] was not below 80%. Besides, in data set [4], the inhibition of growth at 200 ppm is not below 80%.
`COC(C)(C)CC(C)(Cc1ccccc1)NC(=O)c1cnc2c(F)cccc2c1` (stereo not shown) [Compound E-118, N-(1-benzyl-3-methoxy-1,3-dimethyl-butyl)-8-fluoro-quinoline-3-carboxamide]: the melting point was 118 to 120 °C. In data set [6], the inhibition of growth at 200 ppm was not below 80%. Besides, the inhibition of growth at 200 ppm in data set [5] is not below 80%. The inhibition of growth at 200 ppm with Fusarium culmorum [3] was not below 80%. The inhibition of growth at 200 ppm in data set [4] was not below 80%.
In the case of `C[C@](Cc1ccccc1)(CC(F)(F)F)NC(=O)c1cnc2c(F)c(F)ccc2c1` [Compound F-37, N-[(1S)-1-benzyl-3,3,3-trifluoro-1-methyl-propyl]-7,8-difluoro-quinoline-3-carboxamide], the pest or weed control at 200 ppm with Fusarium culmorum [1] was not below 80%. The inhibition of growth at 200 ppm (in data set [5]; in data set [2]; with Fusarium culmorum [3]; in data set [4]) was not below 80% throughout.
`C[C@@](Cc1ccccc1)(CC(F)(F)F)NC(=O)c1cnc2c(F)c(F)ccc2c1` [Compound F-38, N-[(1R)-1-benzyl-3,3,3-trifluoro-1-methyl-propyl]-7,8-difluoro-quinoline-3-carboxamide]: the inhibition of growth at 200 ppm (in data set [5]; in data set [2]; with Fusarium culmorum [3]; in data set [4]) was not below 80% throughout.
Consider `CC(F)(F)C[C@@](C)(Cc1ccccc1)NC(=O)c1cnc2c(F)cccc2c1` [Compound F-40, N-[(1R)-1-benzyl-3,3-difluoro-1-methyl-butyl]-8-fluoro-quinoline-3-carboxamide], for which the pest or weed control at 200 ppm in the data set on Fusarium culmorum [1] was not below 80%. Also, the inhibition of growth at 200 ppm (in data set [5]; in data set [2]; in the data set with Fusarium culmorum [3]; in data set [4]) was not below 80% in each case.
